From patent US12552811B2, “Immunosuppressant, and preparation method therefor and use thereof” (Abbisko Therapeutics Co., Ltd., priority 2020, dated 2026)

Tests used:
[1] = molecular target: interaction between PD-1 and PD-L1 (Homo sapiens (Human), UniProt Q9NZQ7); test: PD1-PDL1 HTRF binding activity test; settings: Cisbio PD-1/PD-L1 binding assay kit
Protocol: I. PD1-PDL1 HTRF Binding Activity Test
The effect of compounds of the examples of the present invention on the interaction between PD-1 and PD-L1 was determined by the PD-1/PD-L1 binding assay kit from Cisbio (#64ICP01PEG or 64ICP01PEH). The detailed experimental process was as follows: • 1) Pre-diluted compound solution, 4 μL of Tag1-PD-L1 and 4 μL of Tag2-PD1 were added to each well of a 384-well plate: • 2) After the mixture was incubated at room temperature for 15 min, 5 μL of anti-Tag1-Eu3+ antibody and 5 μL of anti-Tag2-XL665 antibody were then added; • 3) After incubated for 2 hrs at room temperature or overnight at 4° C., plates were read on Envision of Pelkin Elmer; and readings at 665 nm and 620 nm were recorded, and the ratio of the two readings was taken as a reading for each well; • 4) The reading of each well after compound treatment was compared with the reading of DMSO treated wells to obtain the percent inhibition of the compound; • 5) IC50 values of compounds and positive compounds of the examples of the present invention were determined by non-linear regression analysis of percent inhibition at different compound concentrations. II. Jurkat Reporter Gene Cellular Assay

[2] = Jurkat reporter gene cellular assay; assay type: cell-based; settings: Homo sapiens; Jurkat/NF-κB-luc/PD1 + Raji-PD-L1 coculture, OKT3 1 μg/mL, 6 hrs, activation fold; read-out: Cell Activity EC50
Protocol: The effect of compounds of the examples of the present invention and positive compounds on the interaction between PD-1 and PD-L1 expressed on cell surfaces, and the related influence on T cell functions, were determined by a Jurkat reporter gene cellular assay.
Briefly, the reporter gene plasmid of NF-κB-luc and the plasmid of human PD-1 were transfected into Jurkat cells to establish a stably transfected cell line capable of stably expressing both PD-1 and NF-κB-Luc reporter genes; the expression level of PD-1 on the cell surface was confirmed by flow cytometry; and the expression of the reporter gene was confirmed via the response of the reporter gene stimulated by OKT-3 and Raiji cells.
In addition, the plasmid of human PD-L1 was transfected into Raji cells to obtain a cell line capable of stably expressing PD-L1. Jurkat/NF-κB-luc/PD1 cells and Raji-PD-L1 cells were then cocultured and stimulated with OKT-3. On this basis, the compounds were added, and the enhancement of the signal pathway of T cell activation by the inhibitory effect of the compounds on the interaction between PD-1 and PD-L1 was evaluated by readings of reporter gene responses. The specific experimental process was as follows: • 1) 30 μL of compound or antibody solution was added to each well of a white 96-well plate (coming, 3610) at different diluted concentrations, and 10 μL of OKT3 (Biolegend, 317326) was then added (the final concentration of OKT3: 1 μg/mL); • 2) 20 μL of Raji-PD-L1 cell suspension was added to each well with 5*10^4 cells for each well, and was incubated in an incubator for 20 min: • 3) 20 μL of Jurkat/NF-κb-luc/PD-1 cell suspension was added to each well with 5*10^4 cells for each well, and well mixed, and 6 hrs later, Bright-glo (Promega, E2620) was applied and plates were read on Envision; • 4) The reading of each well treated with the compound was compared with the reading of each well treated with DMSO to obtain the activation fold of the compound; • 5) EC50 values of compounds and positive compounds of the examples of the present invention were determined by non-linear regression analysis of activation folds at different compound concentrations.

[3] = Pharmacokinetic assay in mice; assay type: in vivo; settings: male, mouse; ICR mice, PO 10 mg/kg, plasma
Protocol: III. Pharmacokinetic Assay in Mice
The purpose of this study was to study the pharmacokinetic behaviors of some compounds of the present invention, and administration routes were: per oral administration (PO) to ICR mice at a dose of 10 mg/kg.
The compounds used in this test came from the compounds of the specific examples of the present invention.
ICR mice, male, N=3, with the original source of Shanghai Sippr-BK Laboratory Animal Co. Ltd.
2.3 Preparation and Administration of Drug
The compounds were weighed, and dissolved in a solvent of 0.5% SDS+0.5% CMCNa. The mixture solutions were mixed well by shaking and ultrasonic treatment to obtain colorless clear solutions. The solutions were orally administered to nine mice after an overnight fast. The dosage of administration was 10 mg/kg.
• 1) With about 90 μL/time point, blood was drawn from the submaxillary vein, and heparin sodium was added for anticoagulation. The blood samples were placed onto the ice, and were centrifuged (centrifugation conditions: 8000 r/min, 6 min, 2-8° C.) within 1 hr to obtain plasmas. • 2) The time points for blood sampling were at 0 hr, 0.25 hr, 0.5 hr, 1 hr, 2 hrs, 4 hrs, 6 hrs, 8 hrs and 24 hrs after administration. The samples were stored in a refrigerator at −20° C. • 3) 40 μL of plasma sample was added to 160 μL of cold acetonitrile containing an internal standard, and the mixture solution was vortexed for 3 min and centrifuged at 11,000 r/min for 5 min. • 4) 100 μL of supernate was taken and added to 100 μL of water, and 5 μL of the sample was taken and analyzed by LC/MS/MS.
The compounds from some representative examples of the present invention were administered and tested according to the above method, and their prototype compounds were detected.

Sequence of interaction between PD-1 and PD-L1 (Q9NZQ7 19-238): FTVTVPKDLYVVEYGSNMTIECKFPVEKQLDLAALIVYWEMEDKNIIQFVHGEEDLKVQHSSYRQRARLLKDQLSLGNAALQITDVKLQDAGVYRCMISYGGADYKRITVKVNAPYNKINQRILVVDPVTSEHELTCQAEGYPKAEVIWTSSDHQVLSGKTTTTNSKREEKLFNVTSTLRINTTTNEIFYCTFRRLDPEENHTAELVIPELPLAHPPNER

| SMILES | IC50 [1] [nM] | EC50 [2] [nM] | AUC(0-t) [3] [ng·h/mL] | Cmax [3] [ng/mL] | MRT [3] [h] | Tmax [3] [h] | half-life [3] [h] |
| --- | --- | --- | --- | --- | --- | --- | --- |
| CCN1CCc2cc(C(=O)Nc3cccc(-c4cccc(NC(=O)c5nc6c(n5C)CCN(CCC57CCC(C(=O)O)(CC5)C7)C6)c4Cl)c3Cl)ncc2C1 [Example 3, 4-(2-(2-((2,2′-dichloro-3′-(7-ethyl-5,6,7,8-tetrahydro-2,7-naphthyridine-3-carboxamido)-[1,1′-biphenyl]-3-yl)carbamoyl)-1-methyl-1,4,6,7-tetrahydro-5H-imidazo[4,5-c]pyridin-5-yl)ethyl)bicyclo[2.2.1] heptane-1-carboxylic acid] | 0.174 | 47.6 |  |  |  |  |  |
| CC(C)N1CCc2cc(/C(F)=C/c3cccc(-c4cccc(NC(=O)c5nc6c(n5C)CCN(CCC57CCC(C(=O)O)(CC5)C7)C6)c4Cl)c3Cl)ncc2C1 [Example 25, (Z)-4-(2-(2-((2,2′-dichloro-3′-(2-fluoro-2-(7-isopropyl-5,6,7,8-tetrahydro-2,7-naphthyridin-3-yl)vinyl)-[1,1′-biphenyl]-3-yl)carbamoyl)-1-methyl-1,4,6,7-tetrahydro-5H-imidazo[4,5-c]pyridin-5-yl)ethyl) bicyclo[2.2.1]heptane-1-carboxylic acid] | 0.358 | 86.3 |  |  |  |  |  |
| Cn1c(C(=O)Nc2cccc(-c3cccc(NC(=O)c4cc5c(cn4)CN(C4COC4)CC5)c3Cl)c2Cl)nc2c1CCN(CCC13CCC(C(=O)O)(CC1)C3)C2 [Example 11, 4-(2-(2-((2,2′-dichloro-3′-(7-(oxetan-3-yl)-5,6,7,8-tetrahydro-2,7-naphthyridine-3-carboxamido)-[1,1′-biphenyl]-3-yl)carbamoyl)-1-methyl-1,4,6,7-tetrahydro-5H-imidazo[4,5-c]pyridin-5-yl)ethyl)bicyclo [2.2.1]heptane-1-carboxylic acid] | 0.109 | 54.4 |  |  |  |  |  |
| CC(C)N1CCc2cc(C(=O)Nc3cccc(-c4cccc(NC(=O)c5nc6c(n5C)CCN(CCC57C8C9C5C5C7C8C95C(=O)O)C6)c4Cl)c3Cl)ncc2C1 (stereo not shown) [Example 59, 4-(2-(2-((2,2′-dichloro-3′-(7-isopropyl-5,6,7,8-tetrahydro-2,7-naphthyridine-3-carboxamido)-[1,1′-biphenyl]-3-yl)carbamoyl)-1-methyl-1,4,6,7-tetrahydro-5H-imidazo[4,5-c]pyridin-5-yl)ethyl)cubane-1-carboxylic acid] | 0.904 | 33.8 | 2300 | 616 | 2.4 | 0.5 | 1.2 |
| CC(C)N1CCc2cc(C(=O)Nc3cccc(-c4cccc(NC(=O)c5nc6c(n5C)CCN(CCC57CC(C(=O)O)(C5)C7)C6)c4Cl)c3Cl)ncc2C1 [Example 60, 3-(2-(2-((2,2′-dichloro-3′-(7-isopropyl-5,6,7,8-tetrahydro-2,7-naphthyridine-3-carboxamido)-[1,1′-biphenyl]-3-yl)carbamoyl)-1-methyl-1,4,6,7-tetrahydro-5H-imidazo[4,5-c]pyridin-5-yl)ethyl)bicyclo [1.1.1]pentane-1-carboxylic acid] | 0.253 | 29.4 | 4250 | 2420 | 2 | 0.5 | 1.6 |
| CC(C)N1CCc2cc(C(=O)Nc3cccc(-c4cccc(NC(=O)c5cc(C6CC6)c(CN6CCCC[C@H]6C(=O)O)cn5)c4Cl)c3Cl)ncc2C1 [Example 32, (S)-1-((4-cyclopropyl-6-((2,2′-dichloro-3′-(7-isopropyl-5,6,7,8-tetrahydro-2,7-naphthyridine-3-carboxamido)-[1,1′-biphenyl]-3-yl)carbamoyl)pyridin-3-yl)methyl)piperidine-2-carboxylic acid] |  | 25 | 10200 | 2570 | 2.9 | 0.5 | 1.3 |
| CN1CCc2cc(C(=O)Nc3cccc(-c4cccc(NC(=O)c5nc6c(n5C)CCN(CCC57CCC(C(=O)O)(CC5)C7)C6)c4Cl)c3Cl)ncc2C1 [Example 2, 4-(2-(2-((2,2′-dichloro-3′-(7-methyl-5,6,7,8-tetrahydro-2,7-naphthyridine-3-carboxamido)-[1,1′-biphenyl]-3-yl)carbamoyl)-1-methyl-1,4,6,7-tetrahydro-5H-imidazo[4,5-c]pyridin-5-yl)ethyl)bicyclo[2.2.1] heptane-1-carboxylic acid] | 0.178 | 50 | 1820 | 2320 | 1.8 | 0.083 | 4 |
| CC(C)N1CCc2cc(C(=O)Nc3cccc(-c4cccc(NC(=O)c5nc6c(n5C)CCN(CC[C@H]5CC[C@H](C(=O)O)CC5)C6)c4Cl)c3Cl)ncc2C1 [Example 23, (1R,4R)-4-(2-(2-((2,2′-dichloro-3′-(7-isopropyl-5,6,7,8-tetrahydro-2,7-naphthyridine-3-carboxamido)-[1,1′-biphenyl]-3-yl)carbamoyl)-1-methyl-1,4,6,7-tetrahydro-5H-imidazo[4,5-c]pyridin-5-yl)ethyl) cyclohexane-1-carboxylic acid] |  | 60.7 |  |  |  |  |  |

Further lines, results first:

| IC50 [1] [nM] | EC50 [2] [nM] | AUC(0-t) [3] [ng·h/mL] | Cmax [3] [ng/mL] | MRT [3] [h] | Tmax [3] [h] | half-life [3] [h] | SMILES |
| --- | --- | --- | --- | --- | --- | --- | --- |
|  | 1130 |  |  |  |  |  | O=C1CC[C@@H](CNCc2cnc3c(Nc4cccc(-c5cccc(/C=C(\F)c6cc7c(cn6)CN(CCC68CCC(C(=O)O)(CC6)C8)CC7)c5Cl)c4Cl)nccc3c2)N1 [Example 75, (S,Z)-4-(2-(6-(2-(2,2′-dichloro-3′-((3-((((5-oxopyrrolidin-2-yl)methyl)amino)methyl)-1,7-naphthyridin-8-yl)amino)-[1,1′-biphenyl]-3-yl)-1-fluorovinyl)-3,4-dihydro-2,7-naphthyridin-2(1H)-yl)ethyl)bicyclo [2.2.1]heptane-1-carboxylic acid] |
|  | 1660 |  |  |  |  |  | CC(C)N1CCc2cc(C(=O)Nc3cccc(-c4cccc(NC(=O)c5cc6c(cn5)CN(CCC57CCC(C(=O)O)(CC5)C7)CC6)c4Cl)c3Cl)ncc2C1 [Example 67, 4-(2-(6-((2,2′-dichloro-3′-(7-isopropyl-5,6,7,8-tetrahydro-2,7-naphthyridine-3-carboxamido)-[1,1′-biphenyl]-3-yl)carbamoyl)-3,4-dihydro-2,7-naphthyridin-2(1H)-yl)ethyl)bicycio[2.2.1]heptane-1-carboxylic acid] |
|  | 381 |  |  |  |  |  | CC(C)N1CCc2cc(C(=O)Nc3cccc(-c4cccc(NC(=O)c5ccc6c(n5)CCN(CCC57CCC(C(=O)O)(CC5)C7)C6)c4Cl)c3Cl)ncc2C1 [Example 69, 4-(2-(2-((2,2′-dichloro-3′-(7-isopropyl-5,6,7,8-tetrahydro-2,7-naphthyridine-3-carboxamido)-[1,1′-biphenyl]-3-yl)carbamoyl)-7,8-dihydro-1,6-naphthyridin-6(5H)-yl)ethyl)bicyclo[2.2.1]heptane-1-carboxylic acid] |
